The values that follow come from patent US12116356B2, “N-heterocyclic five-membered ring-containing capsid protein assembly inhibitor, pharmaceutical composition thereof, and use thereof” (CHIA TAI TIANQING PHARMACEUTICAL GROUP CO., LTD., priority 2018, dated 2024).

Molecules are shown by their SMILES. Values after ≈ are worked out from the molar mass of the structure shown. A value given as a limit tells only on which side of the number the result lay.

Data set [1] has as its system HBV DNA in HepAD38 cells. Description: In vitro cell HBV DNA inhibitory activity (anti-HBV activity) in HepAD38 cells. It counts as cell-based. As to conditions: Hepatitis B virus, 144 h; anti-HBV activity in HepAD38 cells, 6 days treatment, intracellular capsid HBV DNA by qPCR; read-out: EC50. As for the experimental part:
(§1) A bottle of HepG2.2.15 or HepAD38 cells in good exponential growth state was taken, washed once by adding 5 mL PBS, and then thereto was added 3 mL trypsin. After digesting at room temperature for 5 min, 2 mL trypsin was discarded, and then the sample was placed in a cell culture incubator and digested for 10 min. The cells were taken out from time to time and observed under a microscope (whether the cells were individually round and there was no adhesion between the cells). 10 mL complete medium was added to terminate the digestion. After pipetting into a single cell suspension, 10 μL of the cell suspension was taken out for cell counting with a cell counter, and then diluted with a complete medium and adjusted to a cell density of 1*10^5 cells/mL. Then the cell suspension was seeded at 1 mL/well in a 24-well plate with a multi-channel pipette (the 24-well plate was coated with 50 μg/mL Collagen I solution in advance), and cultured in a constant temperature CO2 incubator for 48 h.
(§2) Different compounds dissolved in DMSO were subjected to two-fold gradient dilution (10 concentrations in total) with complete medium. The compound was added, and fresh medium containing the compound was used to replace the spent medium every 72 hours. The cells were treated with the compound for 6 days. After the supernatant was siphoned off, 300 μL lysate (10 mM Tris-HCl, 1 mM EDTA, and 1% NP-40) was added to each well. After lysing at room temperature for 10 min, DNA was extracted, and HBV DNA in the intracellular viral capsid was measured by real-time fluorescence quantitative PCR. The inhibition rate was calculated based on the Ct value, and the EC50 value was calculated by the four-parameter method.

The nature of data set [2]: In vivo pharmacokinetics (PK) study in mice. As to conditions: ICR mice, po 30 mg/kg. As to the method:
ICR mice, weighing 18-20 g, were randomly divided into groups of three mice each after 3 to 5 days' acclimatization, and a series of the compounds were administered intragastrically to each group at a dose of 30 mg/kg. The test animals (ICR mice) were fasted for 12 hours before the administration and fed 4 hours after the administration. They were free to access water before and after the experiment. After the intragastric administration, about 0.1 mL of blood was collected from the orbits. Within 30 minutes after anticoagulation with EDTA-K2, the plasma was separated by centrifugation at 4° C. and 4000 rpm for 10 minutes. Immediately after collecting all plasma, it was stored at −20° C. for testing. 20 μL of the plasma sample to be tested and standard curve sample were pipetted, and then thereto was added 200 μL of an acetonitrile solution containing an internal standard (diazepam 20 mg/mL). The resulting mixture was oscillated and mixed uniformly for 5 min, and then centrifugated at 12000 rpm for 10 min. 75 μL supernatant was pipetted, and 75 μL ultrapure water was added thereto for dilution, and mixed evenly. 1 μL of the resulting solution was pipetted for LC/MS/MS determination.

The subject of data set [3] is HBV DNA in HepG2.2.15 cells. Briefly: In vitro cell HBV DNA inhibitory activity (anti-HBV activity) in HepG2.2.15 cells. It counts as cell-based. As to conditions: Hepatitis B virus, 144 h; anti-HBV activity in HepG2.2.15 cells, 6 days treatment, intracellular capsid HBV DNA by qPCR; read-out: EC50. As to the method:
as §1, §2
For orientation: Quantitative PCR measures a nucleic acid by following its amplification.

Data set [4] can be described thus: Solubility in PBS buffer at pH 7.4. It counts as physicochemical. As to conditions: aqueous buffer, PBS buffer pH 7.4, 25° C. As to the method: […] After standing at 25° C. for 16 hours, the system was centrifugated (12000 rpm, room temperature) for 10 min. 20 μL of the supernatant was taken out, and the reaction was terminated with 400 μL of acetonitrile containing an internal standard (diazepam 20 ng/mL). 30 μL of the supernatant was pipetted, and 150 μL of 50% acetonitrile aqueous solution was added thereto for dilution and mixed uniformly. 0.5 μL of the resulting solution was injected for analysis.

Data set [5] in a line: Stability of rat liver microsomes in vitro. It counts as in vitro ADME. As for the experimental part:
(§3) 300 μL of a final incubation system contains 30 μL of liver microsomes (protein concentration: 0.15 mg/mL), 30 μL NADPH+MgCl2, 3 μL substrate (formulated with acetonitrile), and 237 μL PBS buffer. Duplicate incubation systems of 0.3 mL each were formulated for each species. A total volume of 270 μL of a uniformly mixed solution of the substrate and the enzyme was formulated in each tube, the solution and NADPH were pre-incubated at 37° C. for 5 minutes, respectively. Then 30 μL of the mixed solution of NADPH+MgCl2 was added for reaction. 50 μL of the reaction solution was taken out at 0, 10, 30, and 60 mins, and the reaction was terminated with 300 μL of ice acetonitrile containing an internal standard.
(§4) Sample pre-treatment: To 50 μL of the incubated sample was added 300 μL of ice acetonitrile containing diazepam as an internal standard and then precipitated. After vortexing for 5 minutes, the sample was centrifugated (12000 rpm, 4° C.) for 10 minutes. 75 μL of the supernatant was pipetted into a 96-well plate, and then diluted with 75 μL ultrapure water and mixed uniformly. 0.5 μL of the resulting solution was injected and analyzed by LC-MS/MS.
On the technique in general: Microsomes from liver hold many membrane-bound enzymes, among them those of drug oxidation.

Data set [6] can be described thus: In vitro cytotoxicity (CCK-8) in HepG2.2.15 cells. It counts as cell-based. As to conditions: human. As for the experimental part: (§5) A bottle of HepG2.2.15 or HepAD38 cells in good exponential growth state was taken, washed once by adding 5 mL PBS, and then thereto was added 3 mL trypsin. The sample was digested in a cell culture incubator, and taken out from time to time and observed under a microscope. When the cells just fell off, 1 mL trypsin was discarded. The residual liquid was placed in a cell culture incubator at 37° C. and digested for 8-15 min. The cells were taken out and observed under a microscope (whether the cells were individually round and there was no adhesion between the cells). 5 mL MEM medium was added for cell resuspension. The cells were then subjected to cell counting with a cell counter, diluted with a complete medium, and adjusted to a cell density of 2*10^5 cells/mL. Then the cells were seeded at 100 μL/well in a 96-well plate with a multi-channel pipette (the 96-well plate was coated with 50 μg/mL Collagen I solution in advance), and cultured in a constant temperature CO2 incubator for 24 h. The cells were treated by drug administration, and fresh medium containing the compound was used to replace the spent medium every 3 days. To control wells was added a drug-free medium containing 0.5% DMSO, and a control well containing a common medium was set up. 6 days after the administration, CCK-8 was added at 10 μL/well. After 1 to 2 hours, the absorbance was detected with microplate reader at 450 nm, and the inhibition rate and the CC50 were calculated.

The nature of data set [7]: Stability of mouse liver microsomes in vitro. It counts as in vitro ADME. As for the experimental part: as §3, §4
Data set [8] in a line: In vitro cytotoxicity (CCK-8) in HepAD38 cells. As to conditions: human. It counts as cell-based. As for the experimental part: as §5
Data set [9] in a line: Stability of human liver microsomes in vitro. It counts as in vitro ADME. As to the method:
as §3, §4

The EC50 is the concentration giving half of the maximal effect. For the molecule `Cc1c(C(=O)Nc2ccc(F)c(C#N)c2)c(C)n(C)c1C(=O)C(=O)NC(C)(C)C` [Example 13, 5-(2-(tert-butylamino)-2-oxoacetyl)-N-(3-cyano-4-fluorophenyl)-1,2,4-trimethyl-1H-pyrrole-3-carboxamide], in data set [1], the concentration for a half-maximal effect (EC50) is less than 10 nM. Further, the “Liver AUC(0-6 h)” value in [2] (0.25 h, 1 h, 6 h) is recorded as 5834 ng/g. The “Plasma AUC(0-6 h)” value in data set [2] (blood at 0.25 h, 1 h, 6 h) was 1759 ng/mL. In addition, in [2] (mouse, liver/blood, AUC(0-6 h), read-out: Liver to blood ratio), the Kp was determined as 3.32.
As a reminder, the solubility is the concentration that dissolves in the medium under given conditions. In general, CC50 refers to the concentration at which the toxic effect on the cells reaches its halfway point. For `Cc1c(C(=O)Nc2ccc(F)c(C#N)c2)c(C)n(C)c1C(=O)C(=O)NC1CCOC1` (stereo not drawn) [Example 7, N-(3-cyano-4-fluorophenyl)-1,2,4-trimethyl-5-(2-oxo-2-((tetrahydrofuran-3-yl)amino)acetyl)-1H-pyrrole-3-carboxamide], the figures for the EC50 in data set [3] and in [1] were 10 to 50 nM and less than 10 nM, respectively. The solubility at 16 h in data set [4] stood at 19.8 µM (≈ 8.17 µg/mL). The “Remaining (%) at 60 min” value in data set [5] was 70.5%; in data set [7] it was 81.6%; in data set [9] it was 83.8%. Moreover, the cytotoxic concentration (CC50) at 6 days in data set [6] and in [8] was greater than 100000 nM each time.
In the case of `Cc1c(C(=O)Nc2ccc(F)c(C#N)c2)c(C)n(C)c1C(=O)C(=O)N[C@H](C)C(F)(F)F` [Example 11], the EC50 in data set [3] and in [1] was less than 10 nM each time. The molecule also came in with a solubility at 16 h in data set [4] of 7.5 µM (≈ 3.29 µg/mL). For the same molecule, the “Remaining (%) at 60 min” value is reported as 56.8% in data set [5] and 47.7% in [7]. The half-maximal cytotoxic concentration (CC50) at 6 days in [6] and in data set [8] was greater than 100000 nM each time.
In the case of `Cc1c(C(=O)Nc2ccc(F)c(C#N)c2)c(C)n(C)c1C(=O)C(=O)NC1(C)COC1` [Example 6, N-(3-cyano-4-fluorophenyl)-1,2,4-trimethyl-5-(2-(3-methyloxetan-3-ylamino)-2-oxoacetyl)-1H-pyrrole-3-carboxamide], the 50% effective concentration (EC50) in [3] and in [1] was 10 to 50 nM throughout. The same molecule showed a solubility at 16 h in [4] of 81.8 µM (≈ 33.7 µg/mL). In addition, the “Remaining (%) at 60 min” value in [5] is reported as 74.9%; in data set [7] it was 55%; in [9], 79.1%. The CC50 at 6 days in data set [6] and in data set [8] was greater than 100000 nM each time.
